{"source": "patent US6365126B1", "about": "“Learning and short term memory defects with Neurofibromatosis 1 (NF1) expression” (Cold Spring Harbor Laboratory, priority 1997, dated 2002)", "key": {"adenylyl cyclase": {"test_system": "adenylyl cyclase", "experiment": "Adenylyl cyclase activity assay, membrane fractions of adult brain tissues", "type": "biochemical, Drosophila", "settings": "GTPγS 20 μM", "method": "The adenylyl cyclase activity assay described in Livingstone, M. S., Proc. Natl. Acad. Sci. USA, 82:5992-5996 (1985)) was modified as follows. The membrane fraction was extracted from either male heads with the cuticle removed to leave essentially brain tissue, or from 10 male abdomens. Twenty (20) dissected brains in 850 μl lysis buffer were homogenized, and the membrane fraction was extracted by centrifugation at 178,000 g for 10 minutes. GTPγS (final concentration, 20 μM) was added to stimulate G-protein activated adenylyl cyclase activity immediately after homogenization but before centrifugation. When assaying the basal level of adenylyl cyclase activity, GTPγS was not added. These modifications seemed to amplify the NF1 effect. Calcium concentrations were calculated according to MaxChelator v1.31 (Bers, D. M. et al., Methods. Cell. Biol., 40:3-29 (1994)). […] Biochemical assays provide direct evidence to support the electrophysiological data. Previous experiments have shown that Rut-AC expressed in a cell line can be stimulated not only by Ca^2+/calmodulin, but also by reagents that stimulate G-proteins, including GTPγS and AIF4^- (see Levin, L. R. et al., Cell, 68:479-489 (1992)). First, AC activity in membrane fractions of adult brain tissues was examined. […] Thus, GTPγS-stimulated AC activity consists of two components: one that is NF1-dependent and one that is NF1-independent."}, "[1]": {"test_system": "K^+ currents of body-wall muscle fibers", "experiment": "Two-microelectrode voltage-clamp recording of PACAP38-induced responses, larval body-wall neuromuscular preparation", "design": "species or system Drosophila", "method": "PACAP38-induced responses were recorded by the two-microelectrode voltage-clamp method from body-wall muscle fibers of larvae at the third instar (Zhong, Y., Nature, 375:588-592 (1995); Arimura, A. Regulatory Peptides, 37:287-303 (1992); Spengler, D. et al., Nature, 365:170-175 (1993); Jan, L. Y. et al., J. Physiol., 262:189-214 (1976); Wu, C.-F. et al., Science, 220:1076-1078 (1983); Stewart, B. A. et al., J. Comp. Physiol., 175:179-191 (1994)). Electrophysiological recording: The larval body-wall neuromuscular preparation has been described (Zhong, Y. et al., Neuron, 14:527-536 (1995); Zhong, Y., Nature, 375:588-592 (1995); Jan, L. Y. et al., J. Physiol., 262:189-214 (1976); Wu, C.-F. et al., Science, 220:1076-1078 (1983); Stewart, B. A. et al., J Comp Physiol., 175:179-191 (1994)). The setup, saline, recording conditions and voltage paradigms were as described (Zhong, Y. et al., Neuron, 14:527-536 (1995); Zhong, Y., Nature, 375:588-592 (1995)). For recording the PACAP38-induced synaptic current, the membrane potential was clamped at −80 mV. For recording K^+ currents, command voltages were stepped from the holding potential of −80 to −50 and +20 mV, respectively. […] PACAP38 was applied by pressure ejection through a glass electrode positioned near the voltage-clamped muscle membrane. Forskolin and cAMP analogs were applied to the solution bathing the preparation."}, "[2]": {"test_system": "K^+ currents of body-wall muscle fibers", "settings": "cited from earlier work"}}, "note": "Where two headings read alike, the source gives them in different places."}
{"molecule": "Nc1nc2c(ncn2[C@@H]2O[C@H](COP(=O)(O)OP(=O)(O)OP(O)(O)=S)[C@@H](O)[C@H]2O)c(=O)[nH]1", "note": "[GTPγS]", "values": [{"measurement": "GTPγS stimulated AC activity compared with control (K33)", "setting": "adenylyl cyclase; NF1^P1 and NF1^P2 mutant membranes", "result": "markedly reduced"}, {"measurement": "GTPγS-stimulated activity compared with the basal level", "setting": "adenylyl cyclase; NF1 mutant membranes", "result": "significant GTPγS-stimulated activity occurred above the basal level"}]}
{"molecule": "CCCC(=O)Nc1ncnc2c1ncn2[C@@H]1O[C@@H]2COP(=O)(O)O[C@H]2[C@H]1OC(=O)CCC", "note": "[dibutyryl cAMP]", "values": [{"measurement": "effect of cAMP analog on the PACAP38 response", "setting": "[1]; NF1 mutants (NF1^P2 homozygotes, NF1^P1/NF1^P2 larvae)", "result": "restore the normal response to PACAP38"}, {"measurement": "effect of cAMP analog on the PACAP38 response", "setting": "[1]; wild-type larvae", "result": "appeared not to disrupt the PACAP38 response"}, {"measurement": "PACAP38-like enhancement of K^+ currents by cAMP analog alone", "setting": "[2]; larval neuromuscular preparation, no PACAP38", "result": "insufficient"}]}
{"molecule": "PACAP38", "values": [{"measurement": "PACAP38-induced enhancement of K^+ currents", "setting": "[1]; Gap1 null mutants rI^533B1 and rI^533PB", "result": "normal enhancement"}, {"measurement": "PACAP38-induced enhancement of K^+ currents", "setting": "[1]; NF1^P1 and NF1^P2 mutant larvae", "result": "abolished"}, {"measurement": "PACAP38-induced inward current", "setting": "[1]; NF1^P1 and NF1^P2 mutant larvae, membrane potential clamped at -80 mV", "result": "remained mostly intact"}, {"measurement": "PACAP38-induced enhancement of K^+ currents", "setting": "[2]; wild-type larvae, perfusion to the neuromuscular junction", "result": 100, "unit": "fold"}]}
